The text below walks through data of US20080214656A1, “Compounds With Diphenoyl-Structure For the Treatment of Immune Diseases” (Neurogenex Co., Ltd., priority 2004, published 2008).

Assay [1] deals with Foxp3. In words: Foxp3 expression in stimulated CD4+ T cells by real-time RT-PCR. It is filed as cell-based, mice. To be noted: approximately 50 μM; mouse spleen CD4+ T cells stimulated by anti-CD3 and anti-CD28.
Procedure: CD4^+ T cells were obtained from the spleens of mice, and each group of the CD4^+ Tcells with a concentration of approximately 1×10^6 ml^−1 was suspended in Iscove's modified Dulbecco's medium (IMDM) supplemented with 10% fetal bovine serum (Gibco, USA). The CD4^+ T cells were stimulated by antibodies of anti-CD3 (BD Bioscience, USA) and anti-CD28 (BD Bioscience, USA) and cultured at a cell incubator maintained with 5% CO2 at 37° C. The entire RNA was extracted using RNA-Bee solution (Tel-test, USA) and then reverse transcribed into cDNA through the known method as described by McIntyre et al. (Arthritis Rheum., 48(9), pp. 2652-2659, 2003). Afterwards, the level of mRNA expression was estimated by a real-time quantitative PCR with SYBR Green I (Roche, USA). Each reaction was run in triplicate using SYBR Green PCR Master Mix (Roche, USA) according to the manufacturer's protocol. […] At this time, the PCR was performed sequentially at 94° C. for 30 seconds, at 58° C. for 30 seconds, and at 72° C. for 30 seconds. This cycle of PCR was repeated 40 times.
Assay [2] deals with allogenic human leukocytes. The experiment in a line: Mixed leukocyte reaction (MLR), 3H-TdR incorporation. Type of assay: cell-based. The settings on record: for cpm (3H-TdR incorporation, lymphocyte proliferation) as % of the control group: approximately 50 μM, 5 days incubation. The method, then:
Leukocytes were separated from peripheral blood of two allogenic volunteers, and then suspended with a concentration of approximately 2×10^6 ml^−1 in IMDM supplemented with 10% fetal bovine serum (Gibco, USA). 100 μl of each cell suspension was added and mixed in the each well of 96-well cell culture plate. Afterwards, saline solution was added to a control group, while chebulagic acid or punicalagin, which was diluted with saline solution by 2-fold, was added to treatment groups. Then, the plates were incubated with 5% CO2 at 37° C. for 5 days. 20 μl (approximately 0.5 μCi) of tritiated thymidine (^3H-TdR) was added to each well and incubated for 8 hours.
After the incubation, the leukocytes at each well were adsorbed on a glass fiber filter by a cell harvester (Cambridge, USA) and dried thereafter. Using Scintillation beta counter (Packard, USA), an amount of ^3H-TdR incorporated within the cells was measured in a cpm value. This measurement indicates the level of lymphocyte proliferation, which-is illustrated in FIG. 2.
In FIG. 2, CsA represents a group with 1 μM of cyclosporin A used as a positive standard specimen. The concentration of each chebulagic acid and punicalagin was approximately 50 μM. Each of the experimental data was expressed as average±standard error with a p* value of less than 0.05.

In assay [3] the test system is collagen-induced arthritis. The experiment in a line: Collagen-induced arthritis (CIA), prophylactic dosing model. Type of assay: in vivo. To be noted: 10 mg/kg and 20 mg/kg i.p. daily for 3 weeks (day 22 to day 42); DBA/1J mice. Here is the method:
(§1) As introduced in an article by Luross and Williams (Immunology, 103(4), pp. 407-416, 2001), a mice model with collagen-induced arthritis (CIA) was used to check whether compounds with a DP or HHDP structure had immune regulatory effects on the chronic inflammation or autoimmune diseases. Male DBA/1J mice, which were 7 to 9 weeks old (SLC Co., Japan), received a subcutaneous injection at the base of tails with approximately 200 μg of bovine type II collagen (CII) in complete Freund's adjuvant (CFA) on days 0 and 21 to induce systemic autoimmune arthritis. […]
For the prophylactic dosing model, the control group and the treatment groups respectively received an intraperitoneal injection of saline solution and 10 mg/kg and 20 mg/kg of chebulagic acid daily for 3 weeks (from day 22 to day 42). A degree of arthritis of the mice was measured for every interval of 3 to 4 days from day 22 to day 63. […] Each of the experimental data was expressed as average±standard error with a P* value of less than 0.05.
(§2) The daily observed arthritis degree of mice was scored for each paw as follows: 0=normal, 1=slight erythema and edema, 2=increased edema with loss of landmarks, 3=severe edema, and 4=severe edema with ankylosis on flexion. […] Each group was then assigned an arthritic score expressed as a mean articular index.

The test system of assay [4] is collagen-induced arthritis. The experiment in a line: Collagen-induced arthritis (CIA), therapeutic dosing model. Type of assay: in vivo, mice. To be noted: 20 mg/kg i.p. daily for 3 weeks after arthritis induced (after day 63); within 1 week of therapeutic administration. The method, then: as §1
For the therapeutic doing model, another experiment was performed separately from the above experiment for the prophylactic dosing model. […] During 3 weeks of the treatment period, a degree of arthritis of the mice was measured for every interval of 3 to 4 days. […] Each of the experimental data was expressed as average±standard error with a P* value of less than 0.05.
as §2

Assay [5] relates to CD4+CD25+ regulatory T cells. In words: Regulatory T cells in inflamed synovial tissues of CIA mice (FACS, Foxp3 RT-PCR). Type of assay: in vivo. The settings on record: 20 mg/kg. The text has this:
A correlation between immune regulation by chebulagic acid and regulatory T cells was studied through estimation of an increase/decrease in the number of regulatory T cells in inflamed synovial tissues of the mice with collagen-induced arthritis set in specific groups in Example 3. The knee joints of the limbs with edema were isolated and the surrounding muscle, patellar ligament and patella were removed to obtain the synovial tissues. Each of the synovial tissues was cut into small pieces and incubated twice in a buffer solution at 37° C. for 30 minutes. The buffer solution includes approximately 1 μg/ml collagenase type VI (Sigma, USA), 2% fetal bovine serum (Gibco, USA) and 1 mM EDTA (Sigma, USA). The cells of the isolated synovial tissues were collected and stained with anti-CD4-FITC antibodies (BD Bioscience, USA) and anti-CD25-PE antibodies (BD Bioscience, USA) for fluorescence-activated cell sorter (FACS) analysis (BD Bioscience, USA).

In assay [6] the test system is ovalbumin-induced asthma. The experiment in a line: Ovalbumin-induced asthma (OIA), blood IgE level. To be noted: 20 mg/kg i.p. daily for two weeks; Balb/c mice. Type of assay: in vivo. The method, then: The immune regulation effects by compounds with a DP structure, preferably a HHDP structure, were estimated through a mice model with ovalbumin-induced asthma (OIA).
Balb/c mice (Samtaco, Korea) received an intraperitoneal injection of ovalbumin on days 0 and 14, and a solution of 1% ovalbumin was sprayed daily for 20 minutes on days 30, 32 and 34. 20 mg/kg of chebulagic acid was daily injected intraperitoneally for two weeks and bloods were taken to estimate the IgE level to check whether chebulagic acid had efficacy for the mice with the hypersensitive inflammatory disease.

For assay [7], the system named is skin allograft. The experiment in a line: Skin allograft between allogenic mice. It is filed as in vivo. To be noted: 20 mg/kg i.p. daily; Balb/c skin grafted to C57B1/6 mouse. Here is the method: To verify that compounds with a DP or HHDP structure are capable of suppressing a transplantation rejection response or a graft-versus-host disease directly in vivo, a skin graft was performed between allogenic mice and then chebulagic acid was treated to estimate the level of suppression against the tissue transplantation (Schwoebel et al., Lab Anim., 39(2), pp. 209-214, 2005).
Skin tissues including the derma (e.g., approximately 1 cm×approximately 1 cm) from the back of a Balb/c mouse (Samtaco, Korea) and a C57B1/6 mouse (Samtaco, Korea) were isolated while being anesthetized. The skin tissue of the Balb/c mouse was grafted to the back of the C57B1/6 mouse. After the next day of the skin graft, the treatment group and the control group received the daily intraperitoneal injection of 20 mg/kg of chebulagic acid and saline solution, respectively. It was checked whether the grafted skin tissues in the control group and the treatment group were normal or necrotized.

The mark [8] stands for this setting: synovial tissues of mice with arthritis.

Consider `O=C(O)C[C@@H]1C(=O)O[C@H]2[C@@H]3OC(=O)c4cc(O)c(O)c(O)c4-c4c(cc(O)c(O)c4O)C(=O)OC[C@H]2O[C@@H](OC(=O)c2cc(O)c(O)c(O)c2)[C@@H]3OC(=O)c2cc(O)c(O)c3c2[C@H]1[C@H](O)C(=O)O3` [chebulagic acid], for which the “increased amount of Foxp3 expression compared with the control group” value (shortened to “increased amount of Foxp3 expression”) in assay [1] is recorded as “approximately 375%”. For the same compound, in assay [2] (approximately 50 μM vs 1 μM cyclosporin A), the “suppression of lymphocyte proliferation compared with cyclosporin” value is “as effective as 1 μM cyclosporin”. Besides, the “cpm (3H-TdR incorporation, lymphocyte proliferation) as % of the control group” value in assay [2] was “approximately 9.7%”. For the same compound, the “onset of collagen-induced arthritis and articular index” value in assay [3] is “decreased the onset of collagen-induced arthritis and the articular index”. The arthritis progression entry in assay [4] is given as “significant inhibition of the arthritis progression”. Besides, in assay [5] (CIA mice), the “increase of the CD4+CD25+ T cells compared with the control group” value is “approximately 100%” and the “increase of the Foxp3 expression compared with the control group” value is given as “approximately 550%”. Also, in assay [5] (setting [8]), the “CD4+CD25+ T cell ratio (%)” value is reported as 5.0 ± 0.4 % and the Foxp3 expression level came to 3.3 ± 0.3. For the same compound, the “IgE level in blood as compared with the control group OVA-Control” value in assay [6] is given as “approximately 28.5%”. Also, the “success ratio and period of maintaining the tissue graft” value in assay [7] was “increased the success ratio and period of maintaining the tissue graft”.
Consider `O=C(O[C@@H]1O[C@@H]2COC(=O)c3cc(O)c(O)c(O)c3-c3c(cc(O)c(O)c3O)C(=O)O[C@H]([C@H]1O)[C@@H]2O)c1cc(O)c(O)c(O)c1` [corilagin], for which the “increased amount of Foxp3 expression” value in assay [1] is “approximately 350%”.
Consider `O=C1OC2C(O)OC3COC(=O)c4cc(O)c(O)c(O)c4-c4c(O)c(O)c5oc(=O)c6c(c(O)c(O)c7oc(=O)c4c5c76)-c4c(cc(O)c(O)c4O)C(=O)OC3C2OC(=O)c2cc(O)c(O)c(O)c2-c2c1cc(O)c(O)c2O` (centres unmarked) [punicalagin], for which the “increased amount of Foxp3 expression” value in assay [1] is reported as “approximately 737%”. Besides, the “cpm (3H-TdR incorporation, lymphocyte proliferation) as % of the control group” value in assay [2] was “approximately 34.1%”.
